How the values were obtained:
HIV-Bal in HFA = assay: Cytokine pre-stimulation and HIV-Bal replication in human fetal astrocytes, p24 ELISA; type: cell-based; conditions: 24 h pre-stimulation, p24 day 7
Procedure: U87MG (A) and HFA (B) were pre-stimulated with increasing doses of either GM-CSF or IFNγ for 24 h followed by HIV-BAL infection for 24 hours. HIV replication was determined by measuring HIV p24 levels by ELISA seven days post-infection. The dotted line represents basal level of HIV infection of astrocytes without cytokine pre-treatment. Data is representative of three experiments performed in quadruplicate. Error bars represent standard deviations of the mean. Asterisks denote significant values (p<0.05) in comparison to untreated cultures as evaluated by analysis of variance.
To determine if pre-stimulation of astrocytes primes astrocytes, for productive HIV infection, U87MG and HFA were pre-treated for 24 hours with TNFγ, GM-CSF, or IFNγ at various concentrations (0-1000 ng/ml) then infected with HIV-Bal at 10 ng of HIV p24/1×10^6 cells for 24 hours. The cells were then washed extensively or trypsinized to remove bound virus and propagated in the presence of the respective cytokine concentration. HIV infection was monitored by p24 ELISA seven days post-infection. […]
IFN-γ Treatment and HIV Infection. […] HIV infection was monitored at day 7 postinfection by measuring p24 levels by conventional enzyme-linked immunosorbent assay (ELISA) (National Cancer Institute, Frederick, Md.).

TCF-4 / Wnt signaling = assay: TOPflash luciferase reporter (Wnt signaling) in U87MG; type: cell-based, human; conditions: IFNγ treated, 24 hrs post-transfection
Procedure: FIG. 11 Impact of IFN-γ on Wnt signaling. U87MG cells were left untreated or treated with IFN-γ for 24 hrs and then transfected with either TOPflash (containing four native TCF/LEF binding sites) and Renilla constructs or GFP and Renilla constructs. Transfected cells were then cultured with or without their initial treatment (with or without IFN-γ). Luciferase relative light activity (relative light units) was measured 24 hrs later using a luminometer and normalized to Renilla activity. Data are based on at least three experiments and are presented as the increase (n-fold) in luciferase relative light units over Renilla ±standard deviation.
Wnt signaling in astrocytes and its inhibition by IFNγ was investigated: Although inhibiting TCF-4 with a dominant negative mutant stresses the importance of active TCF-4 in restricting HIV replication, it is not informative regarding the mechanism by which IFNγ overcomes astrocyte restriction to productive HIV replication. […] Luc activity was measured 24 hrs post-transfection TCF-4 reporter construct is an indicator of basal and inducible levels of Wnt signaling.
Active Wnt signaling in astrocytes and its inhibition by IFN-γ. […] Basal TCF-4 activity was detected in astrocytes, indicating active Wnt signaling in human astrocytes (FIG. 11). […]

In the case of “IFNγ: cytokine secreted by lymphocytes, activated microglia and astrocytes; used to prime astrocytes”, the “Induction of HIV replication” value (HIV-Bal in HFA) was 2 fold and the “Reduction of basal Wnt signaling (TOPflash luciferase)” value (TCF-4 / Wnt signaling) was “approximately 50%”.

From patent publication US20080193563A1, “HARNESSING WNT SIGNALING TO RESTRICT HIV REPLICATION” (priority 2006, published 2008)
